In the experiment the test system is MCF7/ADR cells. Put plainly: Cell survival rate assay with doxorubicin. Format: cell-based, human. The settings on record: no treatment group (no vector). Here is the method: Cells were seeded in a 96-well flat bottom microplate at 1000 cells per well. After 24 hours of incubation, cells were treated with Ad-LacZ and Ad-REIC at 100 MOI in serum free medium for 2 hours, followed by exchange with fresh complete medium. After 48 hours, floating dead cells were removed by medium exchange. Adhering cells were cultured with doxorubicin at various concentrations for 72 hours. At the end of incubation, cell survival rates were measured using CellTiter96 (trademark) Aqueous One Solution Cell Proliferation Assay (Promega Corp.).

Compound `COc1cccc2c1C(=O)c1c(O)c3c(c(O)c1C2=O)C[C@@](O)(C(=O)CO)C[C@@H]3O[C@H]1C[C@H](N)[C@H](O)[C@H](C)O1` [doxorubicin] had a cell survival % (10 μM doxorubicin) of 88.1%. In addition, the cell survival rates (25 μM doxorubicin) worked out at 45.9%.

The values are drawn from patent US8946173B2, “Cancer cell death inducing agent having effects of potentiating anticancer drug against anticancer-drug-resistant cancer” (Momotaro-Gene Inc., priority 2007, dated 2015).
